Our source for the logD and logP values is the SangsterLogP compilation.

The structures appear in SMILES notation.

One data set is described as follows: method code SF-AS, from DOI: 10.1021/jm00395a009, PMID: 3681892. The note with it: pH 7.4.
A word on the logD: it is lipophilicity at a set pH, counting ionised and neutral species. Lower therefore signals a more hydrophilic compound. Compound `O=c1c(F)cn(C2CCCO2)c(=O)n1Cc1ccccc1` (stereo unspecified) came in with a logD of 1.38.
Take `CC(=O)OC[C@H]1O[C@@H](n2ccc(=O)[nH]c2=O)[C@H](OC(C)=O)[C@@H]1OC(C)=O`: the pH-dependent lipophilicity (logD) was -0.36.
`COCC1OC(n2ccc(=O)n(Cc3ccccc3)c2=O)C(OC)C1OC` (stereo unspecified) gave a logD of 1.81.

The nature of another data set: method code SF-AS, from DOI: 10.1016/j.bmc.2004.10.037, PMID: 15653345.
Conditions: not given
As usually defined, the logP is a log measure of how a compound divides between an organic and an aqueous phase. Higher therefore signals higher lipophilicity. Compound `C#CCN1CCN(Cc2ccc(O)c3ncccc23)CC1` came in with a logP of 1.79.
Same read-out and setting: for `C#CCNC(Cc1ccc(O)c2ncccc12)C(=O)OCC` (stereo unspecified) the value was 0.71.
With `CCOC(=O)N1CCN(Cc2ccc(O)c3ncccc23)CC1`, the log partition coefficient (logP) turned out to be 1.57.

A short description of a further data set: method code SF, from DOI: 10.1016/0168-3659(92)90078-6. The note with it: pH 7.0.
`Cc1ccccc1C(=O)OCC1CCC(n2cnc3c(O)ncnc32)O1` (stereo unspecified) had a pH-dependent lipophilicity (logD) of 1.02.
In the case of `CCCC(=O)OC[C@@H]1CC[C@H](n2cnc3c(=O)[nH]cnc32)O1`, the logD worked out at 0.11.
Same read-out and setting: for `CCCCC(=O)OC[C@@H]1CC[C@H](n2cnc3c(=O)[nH]cnc32)O1` the value was 0.65.

Assay in a further data set: not given
Conditions: not given
In turn, `CCCC1COC(Cn2cncn2)(c2ccc(Cl)cc2Cl)O1` (stereo unspecified) registered a logP of 3.4.
The same measure, in the same setting: for `OC(Cn1cncn1)(c1ccc(F)cc1)c1ccccc1F` (stereo unspecified) the value was 2.3; for `FC(F)C(F)(F)OCC1COC(Cn2cncn2)(c2ccc(Cl)cc2Cl)O1` (stereo unspecified), 3.2.

Assay in another data set: not given
Conditions: not given
This is another data set of the same source.
As for `C[C@]12C=CC(=O)C=C1CC[C@@H]1[C@@H]2C(=O)C[C@@]2(C)[C@H]1CC[C@]2(O)C(=O)CO`, the logP was 1.6.
Still for that read-out and setting: for `COC(=O)C1=C(C)NC(C)=C(C(=O)OC(C)C)[C@H]1c1cccc2nonc12` the value was 3.75.
Regarding `CCCCNc1cc(C(=O)O)cc(S(N)(=O)=O)c1Oc1ccccc1`, the lipophilicity (logP) is 3.21.

The nature of another data set: method code SF-HPLC, from DOI: 10.1248/cpb.47.1081, PMID: 10478463. The note with it: pH 6.5.
Compound `CON=C(C(=O)NC1C(=O)N2C(C(=O)OC(C)OC(C)=O)=CCSC12)c1csc(N)n1` (stereo unspecified) showed a logD of 0.46.
The same measure, in the same setting: then `CON=C(C(=O)NC1C(=O)N2C(C(=O)OC(C)OC(=O)OC(C)C)=CCSC12)c1csc(N)n1` (stereo unspecified), with 1.37; and `CON=C(C(=O)NC1C(=O)N2C(C(=O)OC(C)OC(=O)OC3CCCCC3)=CCSC12)c1csc(N)n1` (stereo unspecified), with 2.52.

Assay in the next data set: not given
Conditions: not given
This is another data set of the same source.
As for `CN(CCF)c1ccc2cc(CC=C(C#N)C#N)ccc2c1`, the log partition coefficient (logP) stood at 3.71.
In the case of `CNc1ccc(-c2ccc3cc(OCC(O)CF)ccc3n2)cc1` (stereo unspecified), the lipophilicity (logP) turned out to be 2.32.
For the compound `Nc1ccc(-c2ccc3cc(OCCF)ccc3n2)cc1`, the logP was found to be 2.4.

Assay in another data set: not given
Conditions: not given
This is another data set of the same source.
As to `Clc1cccc(Cl)c1C=NN=c1ccn(CCc2c(Cl)cccc2Cl)cc1`, the log partition coefficient (logP) was 4.
On the same count and under the same terms, then `ON=C1CCN(CCCc2ccccc2)CC1`, with 2.8; and `Clc1cccc(Cl)c1C=NN=c1ccn(CCCc2ccccc2)cc1`, with 3.9.

Assay in another data set: not given
Conditions: not given
This is another data set of the same source.
As for `Cc1onc(-c2c(F)cccc2Cl)c1C(=O)N[C@@H]1C(=O)N2[C@@H]1SC(C)(C)[C@@H]2C(=O)O`, the log partition coefficient (logP) was 2.58.
Compound `CC1(C)S[C@@H]2[C@H](NC(=O)C(C(=O)Oc3ccccc3)c3ccccc3)C(=O)N2[C@H]1C(=O)O` (stereo partly specified) showed a logP of 3.14.
In the case of `CC1(C)S[C@@H]2[C@H](NC(=O)[C@@H](c3ccccc3)S(=O)(=O)O)C(=O)N2[C@H]1C(=O)O`, the logP stood at 0.59.

A short description of another data set: method code SF-RC, from DOI: 10.1016/j.nucmedbio.2006.06.006, PMID: 16934700. The note with it: pH 7.4.
`FCCCNc1ccc(-c2cc3ccccc3s2)cc1` registered a logD of 3.56.
For `COc1ccc(-c2cc3ccccc3s2)cc1`, the log distribution coefficient (logD) amounted to 3.07.
Turning to `FCCCOc1ccc(-c2cc3ccccc3s2)cc1`, the logD stood at 2.88.

Assay in a further data set: not given
Conditions: not given
This is another data set of the same source.
Regarding `CCc1c(Sc2ccccc2)n(COCc2ccccc2)c(S)nc1=O`, the log partition coefficient (logP) was 3.44.
In turn, `CCOCn1c(Cc2ccccc2)c(CC)c(=O)[nH]c1=O` displayed a logP of 0.74.
`CCOCn1c(Cc2cc(C)cc(C)c2)c(C(C)C)c(=O)[nH]c1=O` gave a logP of 3.46.

The next data set can be described thus: method code SF-RC, from DOI: 10.1016/0361-9230(85)90153-4, PMID: 2413968.
Conditions: not given
In the case of `NC(=O)[C@@H]1CCCN1C(=O)[C@H](Cc1cnc[nH]1)NC(=O)[C@@H]1CCC(=O)N1`, the log partition coefficient (logP) was -1.42.
`CCNC(=O)[C@@H]1CCCN1C(=O)[C@H](CCCN=C(N)N)NC(=O)[C@H](CC(C)C)NC(=O)[C@@H](COC(C)(C)C)NC(=O)[C@H](Cc1ccc(O)cc1)NC(=O)[C@H](CO)NC(=O)[C@H](Cc1c[nH]c2ccccc12)NC(=O)[C@H](Cc1cnc[nH]1)NC(=O)[C@@H]1CCC(=O)N1`: the log partition coefficient (logP) is -1.35.
On to `CSCC[C@H](NC(=O)[C@H](CC(C)C)NC(=O)CNC(=O)[C@H](Cc1ccccc1)NC(=O)[C@H](Cc1ccccc1)NC(=O)[C@H](CCC(N)=O)NC(=O)[C@H](CCC(N)=O)NC(=O)[C@@H]1CCCN1C(=O)[C@H](CCCCN)NC(=O)[C@@H]1CCCN1C(=O)[C@@H](N)CCCN=C(N)N)C(N)=O`, for which the logP was -0.56.

Assay in another data set: not given
Conditions: not given
This is another data set of the same source.
`CCc1nc(S(=O)(=O)Nc2c(F)cccc2F)nn1-c1ccccc1` registered a logP of 3.7.
Still for that read-out and setting: then `Cc1ccc(Cl)c(NS(=O)(=O)c2nc(C)n(-c3ccccc3)n2)c1Cl`, with 4.4; and `Cc1nc(S(=O)(=O)Nc2c(F)cccc2F)nn1-c1ccccc1`, with 3.2.

The next data set can be described thus: method code SF, from PMID: 8999431. The note with it: pH 7.4.
Turning to `CCn1cc(C(=O)NC(CC(C)C)C(=O)OC)c(=O)c2ccc(C)nc21` (stereo unspecified), the pH-dependent lipophilicity (logD) was 3.15.
In the case of `CCOC(=O)CNC(=O)c1cn(CC)c2nc(C)ccc2c1=O`, the pH-dependent lipophilicity (logD) came to 2.07.
`CCn1cc(C(=O)NC(C)C(=O)OC)c(=O)c2ccc(C)nc21` (stereo unspecified) showed a logD of 2.47.

A short description of the next data set: method code SF-AS, from DOI: 10.1002/ps.2780160411.
Conditions: not given
As for `CC(C)CCCCCOC(=O)COc1ccc(Cl)cc1Cl`, the logP was 5.73.
Same read-out and setting: then `CS(=O)(=O)NC(=O)c1cc(Oc2ccc(C(F)(F)F)cc2Cl)ccc1[N+](=O)[O-]`, with 2.9.
Compound `COc1c(Br)cccc1C(=CC(=O)C(C)(C)C)n1cncn1` gave a logP of 3.2.

Assay in a further data set: not given
Conditions: not given
This is another data set of the same source.
With `Cc1nc(NCC(C)O)c(C#N)cc1-c1ccccc1` (stereo unspecified), the logP came out at 2.72.
Compound `COc1ccc(-c2cc(C#N)c(Cl)nc2C)cc1OC` showed a logP of 2.86.
Consider `Cc1nc(NCCCO)c(C#N)cc1-c1ccccc1`, for which the logP was 2.72.

Assay in the next data set: not given
Conditions: not given
This is another data set of the same source.
`CCCCC(CC)COP(=O)(Oc1ccccc1)Oc1ccccc1` (stereo unspecified) yielded a logP of 5.
`Cc1cc(C)cc(OP(=O)(Oc2cc(C)cc(C)c2)Oc2cc(C)cc(C)c2)c1` displayed a logP of 5.26.
As to `CCCCOP(=O)(OCCCC)Oc1ccccc1`, the logP was determined as 3.23.

Another data set in a line: method code SF-HPLC, from DOI: 10.1016/s0021-9673(99)01336-9, PMID: 10757301.
Conditions: not given
With `CC(=O)OCC1=C(C(=O)O)N2C(=O)[C@@H](NC(=O)CSc3ccncc3)[C@H]2SC1`, the log partition coefficient (logP) was -0.15.
Take `CC(=O)OCC1=C(C(=O)O)N2C(=O)C(NC(=O)Cc3cccs3)C2SC1` (stereo unspecified): the lipophilicity (logP) was found to be 0.08.
The same measure, in the same setting: then `CO/N=C(\C(=O)N[C@@H]1C(=O)N2C(C(=O)O)=C(COC(C)=O)CS[C@H]12)c1csc(N)n1`, with -0.13.

The nature of a further data set: method code SF-AS, from DOI: 10.1002/chin.198428254.
Conditions: not given
The compound `c1ccc2c3c([nH]c2c1)CN1CCNCC1C3` (stereo unspecified) yielded a logP of 0.36.
The same measure, in the same setting: for `O=C(NCCN1CCN2Cc3[nH]c4ccccc4c3CC2C1)c1ccccc1[N+](=O)[O-]` (stereo unspecified) the value was 1.8; for `O=C(NCCN1CCN2Cc3[nH]c4ccccc4c3CC2C1)c1ccccc1` (stereo unspecified), 1.52.

Another data set is described as follows: method code SF-AS, from DOI: 10.1163/156856796x00098. The note with it: pH 7.4.
As for `CCOP(=O)(CC(C)(C)[N+]([O-])=Cc1ccccc1)OCC`, the pH-dependent lipophilicity (logD) was 1.
With `CCOP(=O)(CC(C)(C)[N+]([O-])=Cc1ccc(Cl)cc1)OCC`, the log distribution coefficient (logD) stood at 2.29.
In the case of `CCOP(=O)(CC(C)(C)[N+]([O-])=Cc1cc[n+]([O-])cc1)OCC`, the logD is -0.74.

Assay in another data set: not given
Conditions: not given
This is another data set of the same source.
Consider `CC(C)N(CCC(C(N)=O)c1ccccc1Cl)C(C)C` (stereo unspecified), for which the logP is 2.83.
`CC(C)N(CCC(CCC1CCCCC1)(C(N)=O)c1ccccc1Cl)C(C)C` (stereo unspecified) returned a lipophilicity (logP) of 4.23.
Still for that read-out and setting: for `CC(C)N(CCC(C(N)=O)c1ccc(-c2ccccc2)cc1)C(C)C` (stereo unspecified) the value was 3.66.

Assay in a further data set: not given
Conditions: not given
The source holds these as a separate data set.
Compound `COc1ccc2c(c1)OC[C@]1(O)c3cc4c(cc3O[C@H]21)OCO4` showed a logP of 2.58.
`COc1ccc([C@@H]2COc3cc(O)ccc3C2)c(O)c1` came in with a log partition coefficient (logP) of 2.44.
The compound `CC1(C)C=Cc2c(ccc3c2O[C@H]2c4ccc(O)cc4OC[C@@H]32)O1` (relative stereo) yielded a lipophilicity (logP) of 3.58.
